For orientation: IC50 means the midpoint of a concentration-inhibition curve.

This note sets out measurements from patent publication EP2951180B1, “2,6,7,8 SUBSTITUTED PURINES AS HDM2 INHIBITORS” (Merck Sharp & Dohme Corp., priority 2013, dated 2014).

Where two headings read alike, the source gives them in different places.

This assay deals with T1, HDM2 (Homo sapiens, UniProt Q00987).
T1 construct: Thioredoxin (N); made in house; host or cells: E. coli strain BL21(DE3)Rosetta
The assay is described as follows: HDM2 FRET assay (inhibition of binding of FITC labeled p53-pocket peptide to HDM2). Particulars: for IC50: read-out: FRET IC50. The essentials: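 TR-FRET with 0.5 nM His-tagged recombinant HDM2, 3 nM FITC-labelled p53 peptide and 0.25 nM Tb-anti-His antibody in PBS, 0.01% BSA, 0.01% Tween-20, 0.1% DMSO. IC50 from em520/em495 ratio over 10-point dilutions, 4-parameter logistic fit.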

Setting [1] is: 0.5 nM HDM2 (residues 17 to 125), 3nM peptide, two hour incubation at room temperature.

T1 sequence (Q00987 17-125): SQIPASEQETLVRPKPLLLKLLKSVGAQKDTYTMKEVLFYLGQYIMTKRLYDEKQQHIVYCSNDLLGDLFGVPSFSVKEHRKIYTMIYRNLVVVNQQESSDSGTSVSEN

With `Cc1cccc(-c2nc3nc(C(=O)O)nc(N[C@H](CCCN4CCN(C)CC4)C4CCC4)c3n2Cc2ccc(C(F)(F)F)cc2)c1` [Example 7.10, 6-{[(1R)-1-cyclobutyl-4-(4-methylpiperazin-1-yl)butyl]amino}-8-(3-methylphenyl)-7-[4-(trifluoromethyl)benzyl]-7H-purine-2-carboxylic acid], the 50% inhibitory concentration (IC50) (Table 7) is 0.0943 µM. For the molecule `C[C@@H]1COCCN1c1nc2nc(-c3noc(=O)[nH]3)nc(-c3cncc(Cl)c3)c2n1C[C@H]1CC[C@H](C)CC1` [Example 16.10, 3-(6-(5-chloropyridin-3-yl)-7-(((trans)-4-methylcyclohexyl)methyl)-8-((R)-3-methylmorpholino)-7H-purin-2-yl)-1,2,4-oxadiazol-5(4H)-one], the concentration for half-maximal inhibition (IC50) under setting [1] amounted to 0.0181 µM. For the molecule `C[C@@H](Nc1nc(-c2noc(=O)[nH]2)nc2nc(N(C)CC(C)(C)C)n(Cc3ccc(C(F)(F)F)cc3)c12)C1CCC1` [Example 9.84, 3-(6-{[(1R)-1-cyclobutylethyl]amino}-8-[(2,2-dimethylpropyl)(methyl)amino]-7-[4-(trifluoromethyl)benzyl]-7H-purin-2-yl)-1,2,4-oxadiazol-5(4H)-one], the IC50 (Table 9) worked out at 0.0133 µM. For `Cc1ncc(Cl)cc1-c1nc(-c2noc(=O)[nH]2)nc2nc(N3CCOC[C@H]3c3ccccc3)n(C[C@H]3CC[C@H](C)CC3)c12` [Example 16.158, 3-{6-(5-chloro-2-methylpyridin-3-yl)-7-[(trans-4-methylcyclohexyl)methyl]-8-[(3R)-3-phenylmorpholin-4-yl]-7H-purin-2-yl}-1,2,4-oxadiazol-5(4H)-one], the IC50 under setting [1] came out at 0.000601 µM. As to `Cc1cccc(-c2nc3nc(C(N)=O)nc(N[C@H](C)C4CC4)c3n2Cc2ccc(C(F)(F)F)cc2)c1` [Example 12.27, 6-{[(1R)-1-cyclopropylethyl]amino}-8-(3-methylphenyl)-7-[4-(trifluoromethyl)benzyl]-7H-purine-2-carboxamide], under setting [1], the IC50 worked out at 2.04 µM. For the molecule `CC(c1ccccn1)N(C)c1nc2nc(-c3noc(=O)[nH]3)nc(N[C@H](C)C3CCC3)c2n1Cc1ccc(C(F)(F)F)c(F)c1` (stereo partly drawn) [Example 9.72, 3-(6-{[(1R)-1-cyclobutylethyl]amino}-7-[3-fluoro-4-(trifluoromethyl)benzyl]-8-[methyl(1-pyridin-2-ylethyl)amino]-7H-purin-2-yl)-1,2,4-oxadiazol-5(4H)-one], where the note is “Table 9”, the IC50 came out at 0.00464 µM. On the same count and under the same terms, under `C[C@@H](Nc1nc(C(=O)O)nc2nc(N3CCN(C)CC3)n(Cc3ccc(C(F)(F)F)cc3)c12)C1CC1` [Example 9.5, 6-{[(1R)-1-cyclopropylethyl]amino}-8-(4-methylpiperazin-1-yl)-7-[4-(trifluoromethyl)benzyl]-7H-purine-2-carboxylic acid] stands 2.35 µM; under `C[C@@H](Nc1nc(C(=O)O)nc2nc(N3CCCc4ccccc43)n(Cc3ccc(C(F)(F)F)cc3)c12)C1CCC1` [Example 9.124, 6-{[(1R)-1-cyclobutylethyl]amino}-8-(3,4-dihydroquinolin-1(2H)-yl)-7-[4-(trifluoromethyl)benzyl]-7H-purine-2-carboxylic acid], 0.0104 µM. In the case of `CC([C@H]1CC[C@H](C)CC1)n1c(N2CCC[C@H]2CF)nc2nc(-c3noc(=O)[nH]3)nc(-c3cncc(Cl)c3)c21` (single isomer, unassigned) [Example 18.45], the IC50 (Table 18) turned out to be 0.00242 µM. `CCCC(C)N(C)c1nc(C(=O)O)nc2nc(-c3cccc(C)c3)n(Cc3ccc(C(F)(F)F)cc3)c12` (centres unmarked) [Example 6.79, 6-[methyl(1-methylbutyl)amino]-8-(3-methylphenyl)-7-[4-(trifluoromethyl)benzyl]-7H-purine-2-carboxylic acid]: the inhibition at 1 µM (read-out: inh. at 1000 nM (FRET)) came out at 43%. Turning to `C=CCN(c1nc(C(=O)O)nc2nc(NC(C)c3ccccn3)n(Cc3ccc(C(F)(F)F)cc3)c12)[C@H](C)C1CCC1` (stereo partly drawn) [Example 10.31, 6-(allyl((R)-1-cyclobutylethyl)amino)-8-((1-(pyridin-2-yl)ethyl)amino)-7-(4-(trifluoromethyl)benzyl)-7H-purine-2-carboxylic acid], the IC50 (Table 10) stood at 0.0549 µM. Consider `CC1CCCN(c2nc3nc(-c4noc(=O)[nH]4)nc(N[C@H](C)C4CCC4)c3n2C[C@H]2CC[C@H](C)CC2)C1c1ccccc1` (stereo partly drawn) [Example 11.7, 3-(6-(((R)-1-cyclobutylethyl)amino)-8-(3-methyl-2-phenylpiperidin-1-yl)-7-((trans-4-methylcyclohexyl)methyl)-7H-purin-2-yl)-1,2,4-oxadiazol-5(4H)-one], for which the IC50 (Table 11) stood at 0.00634 µM. Take `CC(C)S(=O)(=O)c1nc(N[C@H](C)C2CCC2)c2c(n1)nc(N1CCOC[C@H]1c1ccccc1)n2C[C@H]1CC[C@H](C)CC1` [Example 14.6, N-[(1R)-1-cyclobutylethyl]-7-[(trans-4-methylcyclohexyl)methyl]-2-[(1-methylethyl)sulfonyl]-8-[(3R)-3-phenylmorpholin-4-yl]-7H-purin-6-amine]: the IC50 under setting [1] is 0.0211 µM. On to `CCCCN(CC)c1nc(C(=O)O)nc2nc(-c3cccc(C)c3)n(Cc3ccc(C(F)(F)F)cc3)c12` [Example 6.69, 6-[butyl(ethyl)amino]-8-(3-methylphenyl)-7-[4-(trifluoromethyl)benzyl]-7H-purine-2-carboxylic acid], for which the IC50 (Table 6) turned out to be 0.621 µM. Still for that read-out and setting: the result for `Cc1cccc(-c2nc3nc(C(=O)O)nc(N[C@H](C)C4CC4)c3n2Cc2ccc(F)c(Cl)c2)c1` [Example 6.15, 7-(3-chloro-4-fluorobenzyl)-6-{[(1R)-1-cyclopropylethyl]amino}-8-(3-methylphenyl)-7H-purine-2-carboxylic acid] reads 0.371 µM.

`C[C@@H](Nc1nc(C(=O)O)nc2nc(NCc3ccccc3)n(Cc3ccc(C(F)(F)F)cc3)c12)C1CCC1` [Example 9.13, 8-(benzylamino)-6-{[(1R)-1-cyclobutylethyl]amino}-7-[4-(trifluoromethyl)benzyl]-7H-purine-2-carboxylic acid]: under “Table 9”, the IC50 came to 0.00307 µM. On to `C[C@@H](Nc1nc([S+](C)[O-])nc2nc(N3CCOC[C@H]3c3ccccc3)n(C[C@H]3CC[C@H](C)CC3)c12)C1CCC1` (single isomer, unassigned) [Example 14.2], for which the IC50 under setting [1] amounted to 0.0105 µM.

On to `C[C@@H](Nc1nc(-c2noc(=O)[nH]2)nc2nc(C3(c4cnn(C)c4)CC3)n(C[C@H]3CC[C@H](C)CC3)c12)C1CCC1` [Example 22.63, 3-(6-{[(1R)-1-cyclobutylethyl]amino}-7-[(trans-4-methylcyclohexyl)methyl] -8-[1-(1-methyl-1H-pyrazol-4-yl)cyclopropyl]-7H-purin-2-yl)-1,2,4-oxadiazol-5(2H)-one], for which, where the note is “Table 22”, the IC50 is 0.00793 µM.

As to `C[C@H]1CC[C@H](Cn2c(N3CCC[C@H]3C(F)(F)F)nc3nc(-c4n[nH]c(=O)o4)nc(-c4cncc(Cl)c4)c32)CC1` [Example 16.106, 5-{6-(5-chloropyridin-3-yl)-7-[(trans-4-methylcyclohexyl)methyl]-8-[(2S)-2-(trifluoromethyl)pyrrolidin-1-yl]-7H-purin-2-yl} -1,3,4-oxadiazol-2(3H)-one], the IC50 under setting [1] came out at 0.000825 µM. For the molecule `C[C@@H](Nc1nc(C(=O)O)nc2nc(N3CCOC[C@H]3c3ccccc3)n(C[C@H]3CC[C@H](C)CC3)c12)C(F)(F)F` [Example 11.51, 7-[(trans-4-methylcyclohexyl)methyl]-8-[(3R)-3-phenylmorpholin-4-yl]-6-{[(1R)-2,2,2-trifluoro-1-methylethyl]amino}-7H-purine-2-carboxylic acid], the 50% inhibitory concentration (IC50) (Table 11) is 0.00226 µM.

With `C[C@@H]1OC(=O)N(c2nc3nc(-c4noc(=O)[nH]4)nc(-c4cccc(Cl)c4)c3n2C[C@H]2CC[C@H](C)CC2)[C@@H]1c1ccccc1` [Example 16.9, 3-(6-(3-chlorophenyl)-8-((4R,5S)-5-methyl-2-oxo-4-phenyloxazolidin-3-yl)-7-(((trans)-4-methylcyclohexyl)methyl)-7H-purin-2-yl)-1,2,4-oxadiazol-5(4H)-one], the IC50 under setting [1] turned out to be 0.00301 µM. Same read-out and setting: under `CC(=O)c1nc(N[C@H](C)C2CCC2)c2c(n1)nc(N1CCOC[C@H]1c1ccccc1)n2C[C@H]1CC[C@H](C)CC1` [Example 12.23, 1-(6-{[(1R)-1-cyclobutylethyl]amino}-7-[(trans-4-methylcyclohexyl)methyl]-8-[(3R)-3-phenylmorpholin-4-yl]-7H-purin-2-yl)ethanone] stands 0.0533 µM. Still for that read-out and setting: the result for `CC1(C)COCCN1c1nc2nc(-c3noc(=O)[nH]3)nc(-c3cccc(Cl)c3)c2n1C[C@H]1CC[C@H](C)CC1` [Example 16.29, 3-{6-(3-chlorophenyl)-8-(3,3-dimethylmorpholin-4-yl)-7-[(trans-4-methylcyclohexyl)methyl]-7H-purin-2-yl}-1,2,4-oxadiazol-5(4H)-one] reads 0.0052 µM. In the case of `C[C@@H](Nc1nc(-c2noc(=O)[nH]2)nc2nc(/C=C/c3ccccc3)n(C[C@H]3CC[C@H](C)CC3)c12)C1CCC1` [Example 21.20, 3-(6-{[(1R)-1-cyclobutylethyl]amino}-7-[(trans-4-methylcyclohexyl)methyl]-8-[(E)-2-phenylethenyl]-7H-purin-2-yl)-1,2,4-oxadiazol-5(4H)-one], for the setting “Table 21”, the IC50 stood at 0.00189 µM. With `C[C@@H](Nc1nc(C(=O)O)nc2nc(N3CC(C)(C)OC(C)(C)C3)n(Cc3ccc(C(F)(F)F)cc3)c12)C1CCC1` [Example 9.19, 6-{[(1R)-1-cyclobutylethyl]amino}-8-(2,2,6,6-tetramethylmorpholin-4-yl)-7-[4-(trifluoromethyl)benzyl]-7H-purine-2-carboxylic acid], the IC50 (Table 9) was found to be 0.0124 µM. For `Cc1nonc1CNc1nc2nc(-c3noc(=O)[nH]3)nc(N[C@H](C)C3CCC3)c2n1C[C@H]1CC[C@H](C)CC1` [Example 11.111, 3-(6-{[(1R)-1-cyclobutylethyl]amino}-7-[(trans-4-methylcyclohexyl)methyl]-8-{[(4-methyl-1,2,5-oxadiazol-3-yl)methyl]amino}-7H-purin-2-yl)-1,2,4-oxadiazol-5(2H)-one], the IC50 (Table 11) was 0.00634 µM.
